Entries after “also recorded” stand apart in the source; their conditions may differ.
Assays:
HeLa cells = assay: Western blotting analysis of treated HeLa cells (DNA damage, M phase arrest, apoptosis); assay type: cell-based, human; details: 10 μM
Method: FIGS. 29A-29D Characterization of Compound #13 effects in cancer cells. […] Viability was examined using the Apo Tox-Glo assay system (Promega). Control, 0.3% DMSO. (FIG. 29B) Western blotting analysis of HeLa cells treated with Compound #13 (10 μM). […] (FIG. 29D) Activation of the IFN signaling pathway. HSC-4 squamous carcinoma cells were treated with Compound #13 at 10 μM (12 hrs). RNA samples were analyzed by qRT-PCR to monitor expression levels of ISGs.
Cell lysates were prepared in Laemmli buffer containing benzonase nuclease (Sigma), complete EDTA-free proteinase inhibitor cocktail (Roche), and PhosStop phosphatase inhibitor cocktail (Roche) and size-fractionated by 4-20% sodium dodecyl sulfate-polyacrylamide gel electrophoresis. Proteins were blotted to Immobilon-P […] membrane (Millipore). Membranes were blocked with 10% Blocker BSA (bovine serum albumin) buffer (Thermo Fisher Scientific) and incubated with the primary antibodies overnight at 4° C. After incubation with each appropriate secondary antibody, bands were detected with ECL (GE Healthcare) using X-ray films. Antibodies were diluted in 10% Blocker BSA buffer (Thermo Fisher Scientific).

ADAR1p150 = target: T1, ADAR1p150 (Homo sapiens, UniProt P55265); assay: in vitro editing assay, ADAR1p150; assay type: biochemical; details: dsRNAs (matched, mismatched) and DNA:RNA hybrids; not shown
T1 construct: a full-length interferon-inducible p150 and a shorter N-terminus truncated p110
T1 sequence (P55265 1-1226): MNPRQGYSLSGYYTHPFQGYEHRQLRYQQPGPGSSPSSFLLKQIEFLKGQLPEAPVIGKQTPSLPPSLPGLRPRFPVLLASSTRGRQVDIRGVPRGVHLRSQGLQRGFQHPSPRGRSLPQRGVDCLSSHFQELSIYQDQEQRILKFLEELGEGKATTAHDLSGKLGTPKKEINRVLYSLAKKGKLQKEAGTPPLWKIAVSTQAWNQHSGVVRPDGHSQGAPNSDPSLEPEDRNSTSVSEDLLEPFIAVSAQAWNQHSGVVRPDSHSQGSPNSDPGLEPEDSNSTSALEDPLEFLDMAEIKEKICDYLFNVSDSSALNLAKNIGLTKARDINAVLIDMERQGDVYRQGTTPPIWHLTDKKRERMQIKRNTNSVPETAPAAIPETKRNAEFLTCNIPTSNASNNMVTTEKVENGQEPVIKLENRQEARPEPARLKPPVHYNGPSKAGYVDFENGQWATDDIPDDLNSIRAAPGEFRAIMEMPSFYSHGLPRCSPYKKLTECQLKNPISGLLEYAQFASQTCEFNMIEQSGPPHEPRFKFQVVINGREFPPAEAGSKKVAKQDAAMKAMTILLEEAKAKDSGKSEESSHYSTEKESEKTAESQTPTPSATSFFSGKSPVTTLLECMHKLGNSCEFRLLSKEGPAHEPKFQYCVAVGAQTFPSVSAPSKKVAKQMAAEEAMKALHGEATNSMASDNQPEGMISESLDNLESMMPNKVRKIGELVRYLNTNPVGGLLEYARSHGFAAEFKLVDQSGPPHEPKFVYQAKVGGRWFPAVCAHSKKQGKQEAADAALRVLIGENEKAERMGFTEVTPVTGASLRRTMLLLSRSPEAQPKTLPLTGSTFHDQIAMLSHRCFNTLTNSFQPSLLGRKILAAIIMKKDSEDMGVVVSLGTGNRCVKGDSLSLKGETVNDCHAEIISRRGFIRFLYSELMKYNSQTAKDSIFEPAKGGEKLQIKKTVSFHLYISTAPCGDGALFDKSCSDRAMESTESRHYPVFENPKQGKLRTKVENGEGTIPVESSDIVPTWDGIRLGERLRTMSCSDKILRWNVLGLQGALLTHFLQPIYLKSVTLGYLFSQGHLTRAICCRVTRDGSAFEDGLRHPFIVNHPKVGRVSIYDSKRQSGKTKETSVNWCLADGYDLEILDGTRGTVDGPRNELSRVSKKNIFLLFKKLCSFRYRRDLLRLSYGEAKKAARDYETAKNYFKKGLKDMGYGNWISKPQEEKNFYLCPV
Method: We conducted in vitro editing assay at varying concentrations of Compound #13 with dsRNAs (matched, mismatched) and DNA:RNA hybrids, resulting in determination of IC50 values for ADAR1p110 and ADAR1p150 (not shown) in 7-40 μM ranges: examples of such experiments done for dsRNA are shown (FIG. 8). […] In vivo ADAR1 inhibitory effects in HeLa cells were examined by cDNA sequencing of RT-PCR products of known ADAR1 target RNAs. One example of analysis of such ADAR1 target sites located within the 3′UTR Alu dsRNA of TMPO mRNAs is shown (FIGS. 28A and 28B). This particular ADAR1 target site is highly edited in HeLa cells, more than 80%. Compound #13 inhibited this ADAR1 target site editing down to 0% (FIGS. 28A and 28B).

N#Cc1ccc(NC(=O)c2sc3ccccc3c2Cl)cc1 [Compound #13, 3-chloro-N-(4-cyanophenyl)-1-benzothiophene-2-carboxamide]
DNA damage, M phase arrest and apoptosis markers by Western blotting (HeLa cells): induced DNA damage, M phase arrest, and apoptosis; also recorded: upregulated γ-H2AX, Histone 3 phosphorylated at Serine 10, and cleaved PARP bands | IC50 (ADAR1p150): 7 to 40 µM

Reference: patent US20250066864A1, “METHODS FOR IDENTIFYING ADAR1 INHIBITORS, AND COMPOSITIONS AND METHODS OF USE IN TREATING CANCER” (The Wistar Institute of Anatomy and Biology, priority 2021, published 2025)
